Legend:
[1] = system: human embryonic lung cell line (LB-HEL); assay: Cell-protecting effect against cold shock in LB-HEL cells (WST-1); type: cell-based; settings: cold shock at 4° C. for 24 hours, then 37° C., cell viability by WST-1
Description: The same results as above were also obtained in other types of cells such as human embryonic lung cell line (LB-HEL) as well as hepatocytes (see FIG. 2 and Table 2). More specifically, LB-HEL cells were plated at 1.5×10^6 cells/well using DMEM medium (Gibco BRL) and treated with DMSO, nec-1, IM-54 or the compounds of Examples 126, 127, 137 and 138 at indicated concentrations. After storage at 4° C. for 24 hours, the mixture was transferred into an incubator at 37° C. and cultured therein. In order to verify recovery capacity at 37° C., cell viability after 24 hours post-transfer was measured by the optical density at 440 nm according to the WST-1 method (MK-400, Takeda) and compared with cell viability prior to cold shock (FIG. 2).

[2] = system: primary cultured hepatocytes; assay: Cell-protecting effect against cold shock in primary cultured hepatocytes (WST-1); type: cell-based; settings: Rattus norvegicus, Hepatocyte, 37° C. for 1 hour, 4° C. for 22 hours, then 37° C., cell viability by WST-1
Description: In order to reproduce a condition for preservation prior to organ transplantation, primary cultured hepatocytes were prepared according to Experimental Example 1 and treated with the compounds of the working examples at 9 different concentrations that had been prepared by 3-fold serial dilution method using a starting concentration of 25 μM. The mixture was cultured at 37° C. for 1 hour, stored at 4° C. for 22 hours, and then transferred into an incubator at 37° C. and cultured therein. Cell viability was measured by the optical density at 440 nm according to the WST-1 method (MK-400, Takeda), and IC50 (unit: μM) was obtained using prism software (see Table 1).

[3] = system: rat-isolated perfusion liver; assay: Protecting effect against cold ischemia/warm reperfusion injury in rat-isolated perfusion liver model; settings: 30 μM in HTK solution, 24-hour cold preservation at 4° C.
Description: In order to verify an organ preservation effect, rat-isolated perfusion liver model was used to evaluate a protecting effect of the compounds of the working examples against cold preservation injury. A white rat was anesthetized by intraperitoneal injection of sodium pentobarbital (50 mg/kg) and administered with heparin (500 U/kg) by intravenous injection to prevent blood coagulation. After incising the abdominal median line, in order to measure bile output, polyethylene tube-10 was inserted into the bile duct, and the coronary vein was tied. Polyethylene tube-190 was inserted into the hepatic portal vein, and a perfusate, Krebs-Henseleit bicarbonate buffer (KHBB) (at pH 7.4 at 37° C.) was perfused at a rate of 4 mL/min/g. […] During the perfusion, a mixed gas (O2 95% and CO2 5%) was continuously injected to KHBB to supply oxygen. […]
In order to observe a protecting effect against ischemia and reperfusion injury, bile output and perfusate's LDH activity were measured. KHBB perfusate released from liver at 5, 10, 20, 30, 40, 50, 60, 70 and 80 minutes after reperfusion was collected, and LDH activity in the perfusate was measured using a biochemical automatic analyzer, Hitachi 7150 (FIG. 4). Bile secreted through the polyethylene tube which had been inserted into the bile duct at 0˜20, 20˜40, 40˜60 and 60˜80 minutes after reperfusion was collected, and bile output was measured (FIG. 5).

In the case of `O=S1(=O)CCN(Cc2cc(NC3CCOCC3)c3[nH]c(-c4ccccc4)cc3c2)CC1` [Example 126, [5-(1,1-dioxo-thiomorpolin-4-ylmethyl)-2-phenyl-1H-indol-7-yl]-(tetrahydropyran-4-yl)-amine], the IC50 [1] is reported as less than 0.1 µM, the IC50 [2] is reported as 0.248 µM and the “total amount of bile output” value ([3]; 80 minutes of reperfusion) is reported as 0.070±0.006 ml/g liver. It also gave an inhibition at 30 µM ([3]; Rattus norvegicus, until 50 minutes of reperfusion, read-out: inhibition of LDH activity in the perfusate, compared with the HTK group) of 50 to 70%.

Reference: US8349885B2, “Indole and indazole derivatives having a cell-, tissue- and organ-preserving effect” (LG Life Sciences Ltd., priority 2008, dated 2013)
